The values below come from PMC10799709, “Characterization of a New Immunosuppressive and Antimicrobial Peptide, DRS-DA2, Isolated from the Mexican Frog, Pachymedusa dacnicolor” (International Journal of Inflammation, 2024).

One series concerns human leukocytes. Description: Cytotoxic assay on human leukocytes (viability dye, flow cytometry). The format is cell-based. To be noted: 2 h, various concentrations. The source says:
(§1) Human leukocytes were provided by the « Banco de Sangre del Hospital Regional del IMSS » and the Centro Estatal de la Transfusión Sanguínea in Cuernavaca, Morelos, Mexico. Institutional committees approved the acquisition and isolation of human peripheral blood leukocytes. Human leukocytes and erythrocytes were obtained as previously described. Mouse bone marrow cells (MBMCs) and erythrocytes were obtained from C57BL/6 or Balb/c mice. Mouse epithelial cells were isolated from C57Bl/6 mice, and human epithelial cells were recovered from surgery residues. In brief, intestinal tissues were minced and digested in 450-U/mL collagenase I, 125-U/mL collagenase XI, 60-U/mL hyaluronidase, and 60-U/mL DNAse for 1 hour before gradient density centrifugation on Histopaque-1083 (Sigma-Aldrich, St. Louis, MO). […]
(§2) 5.10^5 mouse or human leukocytes or primary epithelial cells, A549 or Jurkat E6-1 cells, were incubated in 100 µl RPMI or DMEM containing 0.5% BSA and […] with the peptides at different concentrations for 2 hours at 37°C, 5% CO2. […] Viability of leukocytes and Jurkat cells was determined by adding a viability dye (eFluor 780) and counted by FacsCanto flow cytometry with a predetermined number of beads (Polybead, Carboxylate Microspheres, Polysciences, Inc., Le Perray-en-Yvelines, France) added to the samples. […] Data were analyzed with FlowJo.

For a further series, the system named is mouse leukocytes. The series is described as follows: Cytotoxic assay on mouse leukocytes (viability dye, flow cytometry). The format is cell-based. The note with it: 2 h, various concentrations.
Description: as §1, §2
In general terms: In flow cytometry, cells or beads pass a laser one at a time.

For a further series, the system named is Jurkat E6-1 cells. The series is described as follows: Apoptosis/necrosis assay (annexin V / eFluor 780). The format is cell-based. To be noted: Jurkat E6-1, 5 µM, 2 hours. On the procedure:
Induction of apoptosis or necrosis by the peptides was tested by incubating 5.10^5 Jurkat E6-1 cells in 200 µl RPMI containing 10% FBS and […] with the peptides at 5 µM for 2 hours at 37°C, 5% CO2. A positive control was obtained by exposing the cells to UV light for 10 min (1 mJ/cm^2, Stratagene UV Stratalinker 2400), before incubating them for 4 hours at 37°C, 5% CO2, RPMI 10% FBS. Cells were then washed, centrifuged, resuspended, and incubated 30 min at 4°C in the dark with Viability dye 780 (BioLegend). After washing the cells, Annexin-V-FITC in annexin-binding buffer was added, and the cells were incubated for 15 minutes at room temperature in the dark. The cells were fixed with PFA at a final dilution of 2% before being analyzed by FACSCanto flow cytometry.

Series [1] has as its system Gram-positive and Gram-negative strains. Description: Antibacterial properties on a series of strains. The format is cell-based. The procedure:
(§3) The minimum inhibitory concentration (MIC) was determined by a liquid test in 96-well microplates as previously described. 100 µL of the sample to be tested was distributed in triplicate to obtain a range of final concentrations from 100 to 0.2 µM in the wells. 90 µL of bacterial suspension (5 × 10^5 CFU/mL for Gram-negative bacteria and 5 × 10^5 CFU/mL for Gram-positive strains in Mueller–Hinton broth) were added to each well [14]. The microtiter plates were incubated at 37°C overnight. The optical density of the wells was measured at […], and the results were interpreted by calculating the percentage of growth in each well according to the formula: % growth = (OD600 well − OD600 T0)/(OD600 of T100 − OD600 T0) ∗ 100, where OD600 T100 = DO600 growth control (bacterial suspension without the test sample, 100% growth), OD600 T0 = OD600 of sterility control (culture medium + […] 10 µL formaldehyde, 0% growth) well, and OD600 = OD600 of the well which was desired to calculate the percentage of growth (+ bacterial suspension test sample). MIC is the minimum concentration of the peptide that inhibits bacterial growth after incubation at 37°C for 20 hours.
The minimum bactericidal concentration (MBC) is defined as the minimum concentration of the peptide killing 99.9% of bacteria after incubation at 37°C for 20 hours. […]

Another series has as its system C57BL/6 mice. The series is described as follows: Thioglycolate-induced peritoneal inflammation (noninfectious peritonitis). In kind it is in vivo, mouse. The note with it: thioglycolate 3% i.p., 15 µg/injection i.p. at 14, 19 and 24 h, flow cytometry. On the procedure:
C57BL/6 mice were injected intraperitoneally with 1 mL 3% (wt/vol) thioglycolate (Sigma-Aldrich, l'Ile d'Abeau, France) dissolved in sterile NaCl and then 14, 19, and 24 hours later injected i.p. with DRS-DA2N or DRS-DA2NEQ (15 µg/injection). NaCl was used as a negative control. Twelve hours after the last injection, mice were killed, and 3 mL of cold PBS was injected i.p. to harvest peritoneal cells, which were then stained with anti-mouse Ly6G-PE, anti-mouse NK1.1-PE, anti-mouse CD11b-PerCP, and anti-mouse F4/80-APC (BD Biosciences, Rungis, France). Blood and bone marrow were also collected and stained with the same antibodies. Cells and beads were then counted by FACSCalibur flow cytometry, and data were analyzed with FlowJo. Cells being CD11b^hiLy6G^−NK1.1^− are considered to be monocytes (Mo), CD11b^hiLy6G^−NK1.1^− F4/80^+ macrophages (MΦ), and CD11b^hiLy6G^+NK1.1^− neutrophils (PMN).

Series [2] is described as follows: Circular dichroism, percentage of helicity. The format is physicochemical. The note with it: POPE: POPG (75 : 25) LUVs, peptide/lipid 1/50, 10 mM Tris pH 7.4. On the procedure:
The CD spectra of the peptides were recorded as previously described. Measurements were carried out in 10 mM Tris buffer at pH 7.4 and in the presence of POPC, POPG, and POPG-POPC (25 : 75) LUVs or POPG-POPE (25 : 75) LUVS to mimic E. coli inner membrane composition at a peptide/lipid molar ratio of 1/50. Dichroic spectra were corrected by subtracting the background obtained for each peptide-free solution. An analysis of CD spectra was conducted after smoothing, and conversion to molar ellipticity was calculated as follows: […], where θobs is the observed ellipticity, n is the number of bonds, c is the peptide concentration in mol. L^−1, and l is the path length in cm.

Series [3] has as its system S. aureus ATCC 700699 (MecA+). Description: Antibacterial activity on skin multiresistant bacteria. In kind it is cell-based. The note with it: Staphylococcus aureus, ATCC700699. On the procedure: as §3
Series [4] has as its system S. epidermidis ST20140436 (MecA+). The description is as above. The format is cell-based. The note with it: Staphylococcus epidermidis. On the procedure: as §3
The test system of series [5] is Acinetobacter johnsonii (carbapenemase). Described as above. The format is cell-based. The procedure: as §3
Series [6] relates to Propionibacterium acnes (clinical isolate), first listed. The description is as above. In kind it is cell-based. The note with it: Cutibacterium acnes, first listed (r7). On the procedure: as §3
Series [7] concerns Propionibacterium acnes (clinical isolate), second listed. The series is described as above. In kind it is cell-based. The note with it: Cutibacterium acnes, second listed (r8). The procedure:
as §3

The subject of another series is E. coli ATCC8739. The series is described as follows: Time-kill assay. In kind it is cell-based. To be noted: E. coli ATCC8739, peptide at its MIC concentration, 37°C, CFU counting. The procedure:
Time-killing experiments were achieved according to [18, 19] with minor modifications. The peptide's concentration was 1 × MIC and 2 × MIC. At the time points of 15, 30, 45, and 60 min and after homogenization, suspensions were diluted in 10 mM sodium phosphate buffer (pH 6.8) and spread onto MH agar plates. After overnight incubation at room temperature, CFUs were counted.

A further series in a line: ANTS/DPX leakage assay. The note with it: POPE/POPG (75 : 25) LUVs, 0.5 mM lipid, from Figure 10(c). The procedure: The lipids 1-palmitoyl-2-oleoyl-sn-glycero-3-phospho-(1′-rac-glycerol) (POPG) and 1-palmitoyl-2-oleoyl-sn-glycero-3-phosphoethanolamine (POPE) were obtained from Avanti Polar Lipids, Inc., and used without further purification. Desired mixtures of phospholipids were first dried in glass tubes under nitrogen and then maintained under reduced pressure for at least 60 min. Lipid films were subsequently hydrated in PBS to yield a lipid concentration. The resulting dispersions were subjected to 5 freeze-thaw cycles by alternately placing the sample vial in a liquid nitrogen bath and a warm water bath (40°C). […]
The vesicles of POPE/POPG (75/25) at 25 mM concentration were obtained as previously described and suspended in a solution of 12.5 mM ANTS and 45 mM DPX in 10 mM HEPES. […] Final lipid concentration was measured by the method of Rouser.
To measure the leakage of DPX, the vesicles were diluted to a concentration of 0.5 mM lipid. […] ANTS fluorescence was monitored using a fluorimeter (excitation = 350 nm; emission = 530 nm) or a fluorescence plate reader (excitation filter wavelength/bandpass = 340/11; emission 530/25.
Fractional leakage was calculated as (Fsample − Finitial)/(Flysed−Finitial).

In brackets after ≈: the same amount, converted by molar mass. Peptide text beside a SMILES is read from it.

What is called MIC is the least concentration at which growth counts as inhibited. A high value points to a less susceptible organism.

With `CSCC[C@H](NC(=O)[C@H](C)NC(=O)[C@H](C)NC(=O)[C@H](CCCCN)NC(=O)[C@@H](NC(=O)[C@H](CC(C)C)NC(=O)[C@@H](NC(=O)[C@H](CC(N)=O)NC(=O)CNC(=O)[C@@H](N)CCCCN)C(C)C)C(C)C)C(=O)N[C@@H](CC(C)C)C(=O)N[C@H](C(=O)N[C@@H](CCCCN)C(=O)N[C@H](C(=O)N[C@@H](CC(C)C)C(=O)N[C@@H](C)C(=O)N[C@@H](CCCCN)C(=O)N[C@@H](CC(N)=O)C(=O)N[C@@H](CCCCN)C(=O)NCC(=O)N[C@H](C(=O)N[C@@H](CCC(N)=O)C(=O)N[C@@H](CC(N)=O)C(=O)N[C@@H](C)C(=O)N[C@@H](CC(N)=O)C(=O)N[C@@H](C)C(=O)N[C@@H](CC(C)C)C(=O)N[C@H](C(=O)N[C@@H](Cc1c[nH]c2ccccc12)C(=O)O)[C@@H](C)O)C(C)C)C(C)C)[C@@H](C)O` [Scr] (H-KGNVLVKAAMLTKVLAKNKGVQNANALTW-OH; N-terminus and C-terminus assumed), the “induction of death of leukocyte populations” value in the series with human leukocytes is recorded as “did not induce the death”. In the series on mouse leukocytes, the “induction of death of leukocyte populations” value is listed as “did not induce the death”. Moreover, in the series on Jurkat E6-1 cells, the cell death is given as below 4% and the “cells alive (A−V−)” value is “more than 96%”. Besides, the bacterial activity entry in [1] is recorded as “did not exhibit any bacterial activity”. Also, the “egress of inflammatory cells from the bone marrow and increase in blood after induction of peritonitis (systemic effect)” value in the series with C57BL/6 mice was “conserved”. In addition, in series [2], the “percentage of helicity (CD)” value is on record as “remained unstructured”.
Turning to `CC1(C)S[C@@H]2[C@H](NC(=O)[C@H](N)c3ccc(O)cc3)C(=O)N2[C@H]1C(=O)O` [amoxicillin], the MIC in [3] and in [4] was above 43.8 µM each time.
`CC(C)(O/N=C(\C(=O)N[C@@H]1C(=O)N2C(C(=O)[O-])=C(C[n+]3ccccc3)CS[C@H]12)c1csc(N)n1)C(=O)O` [ceftazidime]: the minimum inhibitory concentration (MIC) in [5] was above 29.3 µM.
`C[C@H]1c2cccc(O)c2C(=O)C2=C(O)[C@]3(O)C(=O)C(C(N)=O)=C(O)[C@@H](N(C)C)[C@@H]3[C@@H](O)[C@@H]21` [doxycycline]: the minimal inhibitory concentration (MIC) stood at 0.13 µM (≈ 0.0578 µg/mL) in series [6] and 0.27 µM (≈ 0.12 µg/mL) in [7].
On to omiganan, for which, in the series with E. coli ATCC8739, the “incubation time after which all the bacteria were killed” value is reported as “needed a much longer time to be active”. Besides, the “LIC50 (peptide concentration required to induce 50% leakage)” value in “ANTS/DPX leakage assay” is on record as “No leakage”.
